{"source": "paper PMC9657236", "about": "“Anti-Leukemic Activity of Brassica-Derived Bioactive Compounds in HL-60 Myeloid Leukemia Cells” (International Journal of Molecular Sciences, 2022)", "key": {"[1]": {"assay": "MTT viability assay in macrophage-like differentiated HL-60 cells", "type": "cell-based, human", "details": "human, macrophage-like differentiated HL-60 cells (PMA), differentiated HL-60 cells, 48 h, MTT, mean ± SD", "procedure": "(§1) In order to test the specificity of the compounds as potential anti-tumor/cytotoxic agents with no collateral negative effects upon non-proliferative cells, the series of compounds were also assayed in an in vitro model of human macrophage-like cells derived from the same HL-60 cell line. To obtain these differentiated macrophage-like cells, HL-60 human leukemia cells growing at an exponential rate in suspension were exposed to a dose of 10 ng/mL of phorbol myristate acetate (PMA) (Sigma-Aldrich, Merck, Análisis Vínicos SL, Tomelloso, Spain) for 24 h in 96-well plates at a cell density of 0.2·10^6 HL-60 cells/well at 37 °C and 5% CO2. Cells were then incubated in culture media without PMA for another 24 h in the same culture conditions. After differentiation and resting periods, differentiated cells were treated for 48 h with compound solutions at different concentrations. Finally, MTT assays were performed as previously explained to measure cell viability. All experiments were performed in triplicate and in three independent experiments."}, "[2]": {"system": "NRF2/KEAP1 signaling pathway", "assay": "RT-qPCR gene expression in undifferentiated HL-60 cells", "type": "cell-based, human", "details": "for expression levels of the NRF2-target genes HMOX, NQO1 and GSTA1 (in words): undifferentiated HL-60, RT-qPCR, dose-dependent", "text": "Total RNA was extracted from HL-60 cells using the GenElute Mammalian Total RNA Miniprep kit (Sigma) following the manufacturer’s instructions. RNA was eluted in RNAse-free water and checked for concentration and purity using the Nanodrop spectrophotometer system (ND-100 3.3. Nanodrop Technologies, Thermo Scientific, Madrid, Spain). Only samples with a ratio of Abs260/Abs280 between 1.8 and 2.1 were used for gene expression assays. cDNA was generated using a high-capacity RNA-to-cDNA kit (Thermo Fisher Scientific, Madrid, Spain) according to the manufacturer’s protocol. PCR amplification was carried out with PowerUp SYBR Green PCR Master Mix (Applied Biosystems, Waltham, MA, USA) using a Fast 7500 Real-Time instrument (Applied Biosystems, Waltham, MA, USA). The obtained data were analyzed using the 7500 SDS software (Applied Biosystems, Waltham, MA, USA). Actin beta (ACTB) and Glyceraldehyde 3-phosphate dehydrogenase (GAPDH) were used as reference genes. Both were considered suitable reference genes for gene expression normalization based on geNorm and/or Bestkeeper stability analysis. The gene-stability measures were performed using the RefFinder tool. Relative expression was calculated using the 2^−ΔΔCt method. All experiments were performed in triplicate and in three independent experiments."}, "HL-60 cells [3]": {"system": "HL-60 cells", "assay": "MTT viability assay in proliferative HL-60 cells", "type": "cell-based, human", "details": "for IC50: proliferative HL-60 cells, mean ± SD, n = 3; for IC50 / effect on HL-60 cell viability (in words): MTT; for cytotoxic effect (in words): after 24 h; for effect on HL-60 cell viability (in words): doses up to 50 µM, 24, 48 and 72 h", "procedure": "The human acute myeloid leukemia cell line HL-60 (ATCC® CCL-240™) was used to test the Brassica spp. phytochemicals. Maintenance of the cells was performed as previously described. Briefly, cells were grown in RPMI-1640 medium (Biowest) supplemented with 10% fetal bovine serum (FBS; Gibco, Thermo Fisher Scientific, Madrid, Spain) and 1% penicillin/streptomycin (Gibco, Thermo Fisher Scientific, Madrid, Spain), at 37 °C with 5% CO2 and 90% humidity. All in vitro assays were performed after passage number 5 and before passage number 20 with cells growing at an exponential ratio.\nThe anti-tumor activity of the compounds was evaluated by the MTT (3-(4,5-dimethylthiazol-2-yl)-2,5-diphenyltetrazolium bromide) viability assays as described previously. In brief, HL-60 cells were cultured at a concentration of 10^5 cells/mL (exponential growth rate) in 96-well plates containing 200 μL of cell culture medium and exposed to different doses of the tested compounds (0.5 μM, 1 μM, 5 μM, 10 μM, 25 μM, and 50 μM) for 24, 48, and 72 h. Then, MTT (Thermo Fisher) was added at a final concentration of 483 μM (0.2 mg/mL) and cells were incubated for 1 h at 37 °C and 5% CO2. Afterward, cells were lysed using an acidified isopropanol solubilization solution containing 0.04 M hydrochloric acid and 0.1% NP-40 detergent to release the formazan. Finally, the absorbance was measured at 550 nm using a SPECTROstar Nano (BMG Labtech, Germany) plate reader. The compound cytotoxicity was normalized to the control conditions (untreated with an equivalent dose of vehicle (DMSO) when applicable)."}, "HL-60 cells [4]": {"system": "HL-60 cells", "set-up": "method as in PMID 15135302", "details": "apoptosis induction and cytodifferentiation; cited from earlier work"}, "[5]": {"system": "HL-60 differentiated cells", "assay": "MTT viability assay in macrophage-like differentiated HL-60 cells", "type": "cell-based, human", "procedure": "as §1"}, "[6]": {"details": "Homo sapiens, HL-60, higher dose (50 µM), 48 h, read-out: cell viability"}}, "note": "Read-outs that look alike come from different tables or passages of the source.", "data": [{"smiles": "OC[C@H]1O[C@@H](Oc2cc3c(O)cc(O)cc3[o+]c2-c2ccc(O)c(O)c2)[C@H](O)[C@@H](O)[C@@H]1O", "note": "[C3G, cyanidin-3-glucoside chloride]", "values": [{"measurement": "viability at 48 h, 10 µM", "setting": "[1]", "value": "114 ± 24.4", "unit": "%"}, {"measurement": "viability at 48 h, 25 µM", "setting": "[1]", "value": "108 ± 7.4", "unit": "%"}, {"measurement": "viability at 48 h, 50 µM", "setting": "[1]", "value": "107 ± 12.8", "unit": "%"}, {"measurement": "expression levels of the NRF2-target genes HMOX, NQO1 and GSTA1 (in words)", "setting": "[2]", "value": "markedly induce"}, {"measurement": "cell viability", "setting": "HL-60 cells [3]; 10–50 µM doses, 24 h", "value": "around 40%"}, {"measurement": "cell viability", "setting": "HL-60 cells [3]; 25 and 50 µM, 48 h and 72 h", "value": "below 20%"}, {"measurement": "IC50", "setting": "HL-60 cells [3]; Homo sapiens, 48 h treatment", "value": "7 ± 1", "unit": "µM"}, {"measurement": "IC50", "setting": "HL-60 cells [3]; Homo sapiens, 72 h treatment", "value": "21.9 ± 0.3", "unit": "µM"}, {"measurement": "concentrations needed to inhibit the proliferative capacity of HL-60 cells", "setting": "HL-60 cells [4]", "value": "> 100", "unit": "µM"}]}, {"smiles": "O=C(/C=C/c1ccc(O)c(O)c1)O[C@@H]1C[C@](O)(C(=O)O)C[C@@H](O)[C@H]1O", "note": "[CQA, Chlorogenic acid]", "values": [{"measurement": "viability at 48 h, 10 µM", "setting": "[1]", "value": "114 ± 19.2", "unit": "%"}, {"measurement": "viability at 48 h, 25 µM", "setting": "[1]", "value": "114 ± 20.6", "unit": "%"}, {"measurement": "viability at 48 h, 50 µM", "setting": "[1]", "value": "109 ± 11.8", "unit": "%"}, {"measurement": "expression levels of the NRF2-target genes HMOX, NQO1 and GSTA1 (in words)", "setting": "[2]", "value": "markedly induce"}, {"measurement": "viability at 25 µM", "setting": "HL-60 cells [3]; Homo sapiens, HL-60, 25 µM treatment, 48 and 72 h, read-out: cell viability", "value": "< 50", "unit": "%"}, {"measurement": "viability at 50 µM", "setting": "HL-60 cells [3]; [6]", "value": 13, "unit": "%"}, {"measurement": "viability at 50 µM", "setting": "HL-60 cells [3]; Homo sapiens, HL-60, higher dose (50 µM), 72 h, read-out: cell viability", "value": 11, "unit": "%"}, {"measurement": "IC50", "setting": "HL-60 cells [3]; Homo sapiens, 48 h treatment", "value": "17.4 ± 0.7", "unit": "µM"}, {"measurement": "IC50", "setting": "HL-60 cells [3]; Homo sapiens, 72 h treatment", "value": "28.9 ± 0.7", "unit": "µM"}]}, {"smiles": "c1ccc2c(Cc3c[nH]c4ccccc34)c[nH]c2c1", "note": "[DIM, 3,3′-Diindolmethane]", "values": [{"measurement": "viability at 48 h, 10 µM", "setting": "[1]", "value": "102 ± 22.7", "unit": "%"}, {"measurement": "viability at 48 h, 25 µM", "setting": "[1]", "value": "118 ± 27.2", "unit": "%"}, {"measurement": "viability at 48 h, 50 µM", "setting": "[1]", "value": "105 ± 13.5", "unit": "%"}, {"measurement": "viability at 50 µM", "setting": "HL-60 cells [3]; [6]", "value": 25, "unit": "%"}, {"measurement": "cytotoxic effect (in words)", "setting": "HL-60 cells [3]", "value": "mild but significant cytotoxic effect"}, {"measurement": "maximum cytotoxicity", "setting": "HL-60 cells [3]; higher dose (50 µM), 48 h", "value": 75, "unit": "%"}]}, {"smiles": "O=S(=O)(O)O/N=C(/Cc1c[nH]c2ccccc12)S[C@@H]1O[C@H](CO)[C@@H](O)[C@H](O)[C@H]1O", "note": "[GBS, glucobrassicin]", "values": [{"measurement": "effect on HL-60 cell viability (in words)", "setting": "HL-60 cells [3]", "value": "did not show any effect"}]}, {"smiles": "CSCCCCC(=NOS(=O)(=O)O)SC1OC(CO)C(O)C(O)C1O", "note": "(stereo not drawn) [GER, glucoerucin]", "values": [{"measurement": "effect on HL-60 cell viability (in words)", "setting": "HL-60 cells [3]", "value": "did not show any significant effects"}]}, {"smiles": "C[S+]([O-])CCCC/C(=N\\OS(=O)(=O)O)S[C@@H]1O[C@H](CO)[C@@H](O)[C@H](O)[C@H]1O", "note": "(stereo partly drawn) [GRA, glucoraphanin]", "values": [{"measurement": "effect on HL-60 cell viability (in words)", "setting": "HL-60 cells [3]", "value": "did not show any significant effects"}]}, {"smiles": "OCc1c[nH]c2ccccc12", "note": "[I3C, indole-3-carbinol]", "values": [{"measurement": "viability at 48 h, 10 µM", "setting": "[1]", "value": "93.6 ± 8", "unit": "%"}, {"measurement": "viability at 48 h, 25 µM", "setting": "[1]", "value": "99.5 ± 5.4", "unit": "%"}, {"measurement": "viability at 48 h, 50 µM", "setting": "[1]", "value": "95.1 ± 10.4", "unit": "%"}, {"measurement": "viability at 50 µM", "setting": "HL-60 cells [3]; Homo sapiens, HL-60, maximum dose (50 µM), 24 h, read-out: cell viability", "value": 38, "unit": "%"}, {"measurement": "cytotoxic effect (in words)", "setting": "HL-60 cells [3]", "value": "mild but significant cytotoxic effect"}]}, {"smiles": "C[S+]([O-])CCCCN=C=S", "note": "(stereo not drawn) [SFN, sulforaphane]", "values": [{"measurement": "cytotoxicity in differentiated cells (in words)", "setting": "[5]; 10 µM", "value": "did not cause significant cytotoxicity"}, {"measurement": "cytotoxic effect in differentiated HL-60 cells (in words)", "setting": "[5]; concentrations higher than 10 µM, 48 h", "value": "significant cytotoxic effect"}, {"measurement": "viability at 48 h, 10 µM", "setting": "[1]", "value": "98.2 ± 12.1", "unit": "%"}, {"measurement": "viability at 48 h, 25 µM", "setting": "[1]", "value": "87.6 ± 6.8", "unit": "%"}, {"measurement": "viability at 48 h, 50 µM", "setting": "[1]", "value": "70 ± 17.5", "unit": "%"}, {"measurement": "induction of the NRF2/KEAP1 signaling pathway (in words)", "setting": "[2]; HL-60 cells", "value": "most potent NRF2 activator"}, {"measurement": "expression levels of the NRF2-target genes HMOX, NQO1 and GSTA1 (in words)", "setting": "[2]", "value": "markedly induce"}, {"measurement": "cytotoxicity levels", "setting": "HL-60 cells [3]; 25 µM and 50 µM, all time points (24, 48 and 72 h)", "value": "above 95%"}, {"measurement": "IC50", "setting": "HL-60 cells [3]; Homo sapiens, HL-60, 48 h, 48 h treatment", "value": 6, "unit": "µM"}, {"measurement": "IC50", "setting": "HL-60 cells [3]; Homo sapiens, HL-60, 72 h, 72 h treatment", "value": "11.3 ± 0.5", "unit": "µM"}, {"measurement": "viability at 10 µM", "setting": "HL-60 cells [3]; Homo sapiens, HL-60, 10 µM dose, all time points (24, 48, 72 h)", "value": "< 50", "unit": "%"}, {"measurement": "IC50", "setting": "HL-60 cells [3]; 48 h treatment", "value": "5.9 ± 0.3", "unit": "µM"}]}, {"smiles": "COc1cc(/C=C/C(=O)O)cc(OC)c1O", "note": "[SIA, sinapic acid]", "values": [{"measurement": "effect on HL-60 cell viability (in words)", "setting": "HL-60 cells [3]", "value": "did not have any effect whatsoever"}]}]}
